Source: US20230124095A1 (AMORPHICAL LTD., priority 2020, published 2023)

Experiments:
[1] = system: Cathepsin B; experiment: Cathepsin B activity in Lewis lung carcinoma tumors of treated mice (fluorometric kit); format: in vivo; details: 12 days treatment; vs untreated (saline) group
Procedure: 8 tumors were analyzed per group. For the assay, 20 mg from each extracted tumor were weighed and lysed. Measurements were done using Cathepsin B Activity Assay Kit (Fluorometric) (ab65300) by Abcam (Cambridge, UK). The assays were performed on tumors from the two groups. The lysed samples were treated per Kit instructions, i.e., incubated with Cathepsin B substrate for 1 hour at 37° C. to identify the activity of the lysosomal protein.
(§1) The study was performed with C57BL/6 mice at the age of 6-8 weeks. Eight mice were allocated into each study group. Light anesthesia was administered by isoflurane inhalation. LLC cells in a concentration of 2.5×10^5 cells in 100 μl PBS were intradermally injected (subcutaneously) into the right flank of each mice. […] Cisplatin was given according to manufacturer instructions.
(§2) Ten days following tumor inoculation, when the tumor reached a volume of about >60 mm^3, mice were randomly allocated into the study groups. Various treatments were administered to each group starting Day 10 onwards. The treatment duration lasted for 12 days.
(§3) Both Cathepsin B and S activities were measured using samples from the same groups according to kit instructions. […] Cathepsin B Activity Assay Kit (Fluorometric) (ab65300) and Cathepsin S Activity Assay Kit (Fluorometric) (ab65303) by Abcam (Cambridge, UK) were used.

[2] = system: Cathepsin S; experiment: Cathepsin S activity in Lewis lung carcinoma tumors of treated mice (fluorometric kit); format: in vivo; details: 12 days treatment; vs untreated (saline) group
Procedure: as §1, §2, §3

[3] = system: Lewis Lung Carcinoma (LLC); experiment: Tumor growth in subcutaneous LLC model, ACC with different stabilizers given IP or IV; format: in vivo, mice; details: group 2F, per manufacturer
[4] = system: Experimental Autoimmune Encephalomyelitis (EAE) model; experiment: Clinical score in MOG-induced EAE multiple sclerosis model in mice; format: in vivo

With `N.N.[Cl][Pt][Cl]` [Cisplatin] the “reduction in Cathepsin B activity in tumors” value [1] was 43%, the “increase in Cathepsin S activity in tumors” value [2] was 30% and the “Mean tumor volume on Day 25” value [3] was 1342 mm^3.
For Glatiramer acetate [Copaxone], the “day on which paralysis signs started” value ([4]; C57BL mice, n=10 per group) was 11 days, the “score of the paralysis signs at plateau” value ([4]; after days 15 and 16 of treatments) was “the same paralysis score” and the “score of the paralysis signs at the end of the study” value ([4]; study duration 55 days) was “higher score”. For the same molecule, the “paralysis progression at the initial phase” value ([4]; until day 15, compared to mice given saline or ACC) was “slower paralysis progression”.
